Experimental data taken from patent EP4818168A1, “FUSED RING COMPOUND, PHARMACEUTICAL COMPOSITION THEREOF AND USE THEREOF” (priority 2023, dated 2025).
pIC50: −log10 of the molar value.

Test system: H82 cells
Assay: cells
Assay type: cell-based
Conditions: Homo sapiens, NCI-H82; H82 cells, 4000 cells/well, CellTiter-Glo; read-out: IC50 in H82 Cells
Procedure: CellTiter-Glo (CTG) is a rapid cell viability test method based on ATP detection. […] Adenosine triphosphate (ATP) participates in various enzymatic reactions in organisms and is an indicator of living cell metabolism. Its content directly reflects the number of living cells and cell status. During the experiment, equal volume of CTG reagent is added to the cultured cells to measure the luminescence value. The chemiluminescent signal value is proportional to the amount of ATP, thus reflecting the number of viable cells. Therefore, cell viability can be obtained by detecting the ATP content. Compounds that affect cell viability will inhibit cell viability in a concentration-dependent manner, allowing a curve to be fitted to obtain the IC50 value.
The experimental procedure is as follows: • 11. Place the cell suspension in a 15 mL centrifuge tube, centrifuge at 1000 rpm for 5 min at room temperature, discard the supernatant, and collect the cell pellet. • 12. Resuspend the cell pellet with preheated complete cell culture medium (RPMI1640+10%FBS+1%PS), and use a Countess® automated cell counter to detect cell viability and density. […] Transfer the compound solution to a 96-well plate seeded with cells (final concentration of DMSO 0.1%), and place in a cell incubator at 37°C, 5% CO2 for 6 days. • 15. […] Protect from light during the whole process. Perform optical signal readings using a SpectraMax i3x reader. • 16. Data analysis: Remaining activity (%) = 100% * (1 - ((LumDMSO - Lummedium) - Lumsample) / (LumDMSO - LumPBS/medium)). Use GraphPad Prism 9.0 software to draw an S-shaped dose-survival rate curve and calculate the IC50 value using a nonlinear regression model.

Row | Compound | pIC50
1 | O=C1CCN(c2cccc(N3CCN(CCOc4cccc(Nc5ncc6c(n5)-c5ccc(Cl)cc5C(c5c(F)cccc5F)=NC6)c4)CC3)c2)C(=O)N1 [Compound A125] | > 6.00
2 | CP(C)(=O)c1cc(N2CCC(=O)NC2=O)ccc1N1CCN(C(=O)C2CCN(c3ccc(Nc4ncc5c(n4)-c4ccc(Cl)cc4C(c4c(F)cccc4F)=NC5)cc3)CC2)CC1 [Compound A287] | > 6.00
3 | N#Cc1cc(N2CCC(=O)NC2=O)cnc1N1CCN(C(=O)C2CCN(c3ccc(Nc4ncc5c(n4)-c4ccc(Cl)cc4C(c4c(F)cccc4F)=NC5)cc3)CC2)CC1 [Compound A326] | > 6.00
4 | O=C1CCN(c2ccc(N3CCC(C(=O)N4CCN(C56CC(Nc7ncc8c(n7)-c7ccc(Cl)cc7C(c7c(F)cccc7F)=NC8)(C5)C6)C(=O)C4)CC3)nc2)C(=O)N1 [Compound A270] | > 6.00
5 | CN1CCN(CC2CCN(c3cccc(N4CCC(=O)NC4=O)c3)CC2)Cc2cc(Nc3ncc4c(n3)-c3ccc(Cl)cc3C(c3c(F)cccc3F)=NC4)ccc21 [Compound A239] | > 6.00
6 | O=C1CCN(c2ccc(N3CCC(N4CCN(C56CC(Nc7ncc8c(n7)-c7ccc(Cl)cc7C(c7c(F)cccc7F)=NC8)(C5)C6)CC4)C3)nc2)C(=O)N1 (stereo not drawn) [Compound A227] | > 6.00
7 | O=C1CCN(c2ccc(N3CCN(CC4CN(c5ccc(Nc6ncc7c(n6)-c6ccc(Cl)cc6C(c6c(F)cccc6F)=NC7)cc5)C4)CC3)nc2)C(=O)N1 [Compound A199] | > 6.00
8 | O=C1CCN(c2cccc(N3CC(CN4CCOc5ccc(Nc6ncc7c(n6)-c6ccc(Cl)cc6C(c6c(F)cccc6F)=NC7)cc5C4)C3)c2)C(=O)N1 [Compound A237] | > 6.00
9 | N#Cc1cc(N2CCN(C(=O)C3CCN(c4ccc(Nc5ncc6c(n5)-c5ccc(Cl)cc5C(c5c(F)cccc5F)=NC6)cc4)CC3)CC2)ccc1N1CCC(=O)NC1=O [Compound A304] | > 6.00
10 | O=C1CCN(c2cccc(N3CCC(CN4CC(c5cccc(Nc6ncc7c(n6)-c6ccc(Cl)cc6C(c6c(F)cccc6F)=NC7)c5)C4)CC3)c2)C(=O)N1 [Compound A143] | > 6.00

Target: T1, AURKA (Homo sapiens, UniProt O14965)
T1 construct: endogenous in cells; host or cells: Jurkat cells
T1 sequence (O14965 1-403): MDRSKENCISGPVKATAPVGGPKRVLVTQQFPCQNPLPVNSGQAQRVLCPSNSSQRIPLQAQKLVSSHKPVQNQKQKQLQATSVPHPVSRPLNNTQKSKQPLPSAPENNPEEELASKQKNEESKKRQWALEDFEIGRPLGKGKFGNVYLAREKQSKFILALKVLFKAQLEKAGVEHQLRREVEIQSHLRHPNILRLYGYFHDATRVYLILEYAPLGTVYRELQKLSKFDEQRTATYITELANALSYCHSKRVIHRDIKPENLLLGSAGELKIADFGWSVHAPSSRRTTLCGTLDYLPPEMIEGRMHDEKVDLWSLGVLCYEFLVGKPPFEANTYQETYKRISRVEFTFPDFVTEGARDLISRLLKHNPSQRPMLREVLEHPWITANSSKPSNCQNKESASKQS
Assay: not given
Assay type: cell-based
Conditions: 100 nM compound, Jurkat cells, 24 h, Table 2
From the text: WB is a classical biochemical experimental method used to detect the abundance of a target protein in a sample of cells or biological tissue. It relies on specific antigen-antibody binding to detect protein signals from the sample processed by gel electrophoresis: the protein specifically binds to a primary antibody at an epitope; the primary antibody is then conjugated with a secondary antibody to amplify the signal cascade; the signal is read out by chemiluminescent or fluorescent detection. The intracellular protein content is ultimately characterized by the intensity of the optical signals. […] The DC50 value can be calculated by curve fitting of the protein WB exposure signals.
The experimental procedure is as follows: • 1. Seed Jurkat cells into a 12-well plate at 1×10^6 cells/500 µL/well. • 2. Mix the culture medium with the compound to a concentration that is twice the desired final concentration. […] Transfer the cell suspension to a centrifuge tube. Rinse the 12-well plate with PBS and then transfer the PBS from the plate to the same centrifuge tube. Centrifuge at 3000 rpm for 5 min at room temperature. Aspirate the supernatant using a vacuum pump. […] Lyse on ice for 20 min. • 4. Centrifuge the lysed sample at 13000 rpm for 20 min at 4°C. Mix the supernatant with 5× protein loading buffer. Boil at 100°C for 5 min and then cool. Store the denatured protein sample at -20°C. • 5. […] Run electrophoresis at 80 V for 20 min, and then at 120 V constant voltage for 60 min. • 6. Transfer the protein onto a nitrocellulose membrane in an ice bath at 250 mA constant current for 90 min. • 7. […] Incubate with a primary antibody overnight at 4°C. • 9. […] Incubate with a secondary antibody for 1-2 h at room temperature. • 10. […] Expose and image the membrane using a LICOR Odyssey DLx imager.

Row | Compound | Percentage of AURKA Degradation Induced by 100 nM Compound in Jurkat Cells
11 | O=C1CCN(c2cccc(N3CCN(CCOc4cccc(Nc5ncc6c(n5)-c5ccc(Cl)cc5C(c5c(F)cccc5F)=NC6)c4)CC3)c2)C(=O)N1 [Compound A125] | ++ (30% < Degradation ≤ 70%)
12 | CP(C)(=O)c1cc(N2CCC(=O)NC2=O)ccc1N1CCN(C(=O)C2CCN(c3ccc(Nc4ncc5c(n4)-c4ccc(Cl)cc4C(c4c(F)cccc4F)=NC5)cc3)CC2)CC1 [Compound A287] | + (Degradation ≤ 30%)
13 | N#Cc1cc(N2CCC(=O)NC2=O)cnc1N1CCN(C(=O)C2CCN(c3ccc(Nc4ncc5c(n4)-c4ccc(Cl)cc4C(c4c(F)cccc4F)=NC5)cc3)CC2)CC1 [Compound A326] | +++ (Degradation > 70%)
14 | O=C1CCN(c2ccc(N3CCC(C(=O)N4CCN(C56CC(Nc7ncc8c(n7)-c7ccc(Cl)cc7C(c7c(F)cccc7F)=NC8)(C5)C6)C(=O)C4)CC3)nc2)C(=O)N1 [Compound A270] | +++ (Degradation > 70%)
15 | CN1CCN(CC2CCN(c3cccc(N4CCC(=O)NC4=O)c3)CC2)Cc2cc(Nc3ncc4c(n3)-c3ccc(Cl)cc3C(c3c(F)cccc3F)=NC4)ccc21 [Compound A239] | +++ (Degradation > 70%)
16 | O=C1CCN(c2ccc(N3CCC(N4CCN(C56CC(Nc7ncc8c(n7)-c7ccc(Cl)cc7C(c7c(F)cccc7F)=NC8)(C5)C6)CC4)C3)nc2)C(=O)N1 (stereo not drawn) [Compound A227] | ++ (30% < Degradation ≤ 70%)
17 | O=C1CCN(c2ccc(N3CCN(CC4CN(c5ccc(Nc6ncc7c(n6)-c6ccc(Cl)cc6C(c6c(F)cccc6F)=NC7)cc5)C4)CC3)nc2)C(=O)N1 [Compound A199] | +++ (Degradation > 70%)
18 | O=C1CCN(c2cccc(N3CC(CN4CCOc5ccc(Nc6ncc7c(n6)-c6ccc(Cl)cc6C(c6c(F)cccc6F)=NC7)cc5C4)C3)c2)C(=O)N1 [Compound A237] | +++ (Degradation > 70%)
19 | N#Cc1cc(N2CCN(C(=O)C3CCN(c4ccc(Nc5ncc6c(n5)-c5ccc(Cl)cc5C(c5c(F)cccc5F)=NC6)cc4)CC3)CC2)ccc1N1CCC(=O)NC1=O [Compound A304] | +++ (Degradation > 70%)
20 | O=C1CCN(c2cccc(N3CCC(CN4CC(c5cccc(Nc6ncc7c(n6)-c6ccc(Cl)cc6C(c6c(F)cccc6F)=NC7)c5)C4)CC3)c2)C(=O)N1 [Compound A143] | +++ (Degradation > 70%)

Same assay, conditions: 1 µM compound, Jurkat cells, 24 h, Table 2

Row | Compound | Percentage of AURKA Degradation Induced by 1 µM Compound in Jurkat Cells
21 | O=C1CCN(c2cccc(N3CCN(CCOc4cccc(Nc5ncc6c(n5)-c5ccc(Cl)cc5C(c5c(F)cccc5F)=NC6)c4)CC3)c2)C(=O)N1 [Compound A125] | +++ (Degradation > 70%)
22 | CP(C)(=O)c1cc(N2CCC(=O)NC2=O)ccc1N1CCN(C(=O)C2CCN(c3ccc(Nc4ncc5c(n4)-c4ccc(Cl)cc4C(c4c(F)cccc4F)=NC5)cc3)CC2)CC1 [Compound A287] | + (Degradation ≤ 30%)
23 | N#Cc1cc(N2CCC(=O)NC2=O)cnc1N1CCN(C(=O)C2CCN(c3ccc(Nc4ncc5c(n4)-c4ccc(Cl)cc4C(c4c(F)cccc4F)=NC5)cc3)CC2)CC1 [Compound A326] | +++ (Degradation > 70%)
24 | O=C1CCN(c2ccc(N3CCC(C(=O)N4CCN(C56CC(Nc7ncc8c(n7)-c7ccc(Cl)cc7C(c7c(F)cccc7F)=NC8)(C5)C6)C(=O)C4)CC3)nc2)C(=O)N1 [Compound A270] | +++ (Degradation > 70%)
25 | CN1CCN(CC2CCN(c3cccc(N4CCC(=O)NC4=O)c3)CC2)Cc2cc(Nc3ncc4c(n3)-c3ccc(Cl)cc3C(c3c(F)cccc3F)=NC4)ccc21 [Compound A239] | +++ (Degradation > 70%)
26 | O=C1CCN(c2ccc(N3CCC(N4CCN(C56CC(Nc7ncc8c(n7)-c7ccc(Cl)cc7C(c7c(F)cccc7F)=NC8)(C5)C6)CC4)C3)nc2)C(=O)N1 (stereo not drawn) [Compound A227] | + (Degradation ≤ 30%)
27 | O=C1CCN(c2ccc(N3CCN(CC4CN(c5ccc(Nc6ncc7c(n6)-c6ccc(Cl)cc6C(c6c(F)cccc6F)=NC7)cc5)C4)CC3)nc2)C(=O)N1 [Compound A199] | +++ (Degradation > 70%)
28 | O=C1CCN(c2cccc(N3CC(CN4CCOc5ccc(Nc6ncc7c(n6)-c6ccc(Cl)cc6C(c6c(F)cccc6F)=NC7)cc5C4)C3)c2)C(=O)N1 [Compound A237] | +++ (Degradation > 70%)
29 | N#Cc1cc(N2CCN(C(=O)C3CCN(c4ccc(Nc5ncc6c(n5)-c5ccc(Cl)cc5C(c5c(F)cccc5F)=NC6)cc4)CC3)CC2)ccc1N1CCC(=O)NC1=O [Compound A304] | +++ (Degradation > 70%)
30 | O=C1CCN(c2cccc(N3CCC(CN4CC(c5cccc(Nc6ncc7c(n6)-c6ccc(Cl)cc6C(c6c(F)cccc6F)=NC7)c5)C4)CC3)c2)C(=O)N1 [Compound A143] | +++ (Degradation > 70%)
